Like-named read-outs stand apart in the source and are kept apart here.
Legend:
LlFpg/DNA complex C1 = biological target: T1, LlFpg/DNA complex C1 (Lactococcus lactis subsp. cremoris, UniProt P42371); test: EMSA, Fpg DNA binding to 14-mer [THF:C] duplex, complex C1 (lesion recognition complex, Fpg/DNA 1/1); settings: pre-incubation of Fpg 20 min at 4 °C; micromolar to millimolar inhibitor
T1 construct: made in house; host or cells: E. coli BH540 (fpg defective)

LlFpg = biological target: T2, LlFpg (Lactococcus lactis subsp. cremoris, UniProt P42371); test: Enzyme kinetics of 8-oxoG excision by LlFpg in the presence of 2TX (double-reciprocal, Dixon, Cornish-Bowden plots); assay type: biochemical
T2 construct: made in house; host or cells: E. coli BH540 (fpg defective)
Excerpt: Kinetic experiments with LlFpg in the presence of 2TX partially support this last hypothesis (Figure S3). Although LlFpg was inhibited by 2TX, as was its E. coli homolog (EcFpg), the raw kinetic data from all the experiments appeared to be very complicated and difficult to interpret. […] In this case, no inhibitory constant (Ki) can be determined. This mechanism (also supported by the inhibition suppression by TCEP, Figure S2) is likely superimposed on other inhibitory mechanisms, a factor that makes it difficult to analyze kinetic data. To clarify, we separately analyzed kinetic data obtained for low and high 2TX concentrations (Figure S3). As expected, we observed a linear dependence of the reciprocal velocity (1/v) as a function of the reciprocal substrate concentrations (1/S) with and without the inhibitor. […] These values compare well with those determined previously for the excision of FapyG and 8-oxoG by EcFpg. […] This value is consistent with an interaction of 2TX in the active site of the enzyme. This inhibitory mechanism has not been previously described for the EcFpg enzyme. […] This mode of inhibition is in agreement with the possibility that 2TX can bind outside the active site on the free and bound enzyme. […]

hNeil1 = hNeil1 (Homo sapiens, UniProt Q96FI4); test: EMSA, hNeil1 DNA binding to THF-containing DNA duplex; settings: Figure 4
mvNei1 = biological target: T3, mvNei1 (Acanthamoeba polyphaga mimivirus, UniProt Q5UQ00); test: EMSA, mvNei1 DNA binding to THF-containing DNA duplex; settings: Figure 4
T3 construct: 6His (C); made in house; host or cells: E. coli Rosetta2 (DE3)
Experimental: Figure 4 Comparative analysis of the effect of 2TX and TXn on Fpg/Nei DNA glycosylases. Enzyme activities were measured as described in the Figure 1 legend using 0.1 nM of a 5′-[^32P]-24-mer DNA duplex containing either an 8-oxoG opposite C for LlFpg or a […] (DHU) opposite G for hNeil1 and mvNei1. The DNA probe was incubated with the indicated protein concentration and 0.2 mM TXn compounds in the presence or absence of 1 mM dithiothreitol (DTT) and TCEP (a representative experiment is illustrated by the upper histograms). […]
The DNA binding activity was measured using EMSA [37]. […] After electrophoresis, the gels were dried and exposed overnight for autoradiography using a Typhoon imager and quantified with ImageQuant software. To evaluate the inhibitor effect of 2TX/TXn on the DNA binding activity of each Fpg/Nei enzyme, we first determined the experimental conditions required to bind 50% of the DNA probes without an inhibitor in the presence of 8% DMSO (limiting enzyme concentration). […] This effect was determined by the addition of the thio-compound in the pre-equilibrium mixture of the enzyme and DNA probe (30 min) and incubated for an additional 30 min at 4 °C. For the best inhibitors of Fpg, a dose-response curve was established from at least three independent experiments and the IC50 was determined (IC50^B, Table 1).

T2 sequence (P42371 2-273): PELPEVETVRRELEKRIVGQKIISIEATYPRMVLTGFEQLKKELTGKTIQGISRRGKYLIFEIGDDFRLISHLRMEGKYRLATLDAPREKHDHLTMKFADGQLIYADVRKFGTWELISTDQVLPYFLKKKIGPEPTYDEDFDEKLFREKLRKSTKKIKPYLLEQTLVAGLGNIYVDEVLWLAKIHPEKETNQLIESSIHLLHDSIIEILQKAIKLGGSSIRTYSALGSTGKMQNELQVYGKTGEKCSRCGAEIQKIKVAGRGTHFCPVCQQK
Sequence of hNeil1 (Q96FI4 2-290 limits assumed): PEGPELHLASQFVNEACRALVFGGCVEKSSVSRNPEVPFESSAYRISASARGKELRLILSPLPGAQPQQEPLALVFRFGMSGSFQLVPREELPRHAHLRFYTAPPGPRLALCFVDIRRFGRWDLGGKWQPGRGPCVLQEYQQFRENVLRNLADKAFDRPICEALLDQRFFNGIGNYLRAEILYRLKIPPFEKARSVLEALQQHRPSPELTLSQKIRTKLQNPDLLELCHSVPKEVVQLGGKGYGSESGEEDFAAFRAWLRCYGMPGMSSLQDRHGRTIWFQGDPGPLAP
T3 sequence (Q5UQ00 whole entry): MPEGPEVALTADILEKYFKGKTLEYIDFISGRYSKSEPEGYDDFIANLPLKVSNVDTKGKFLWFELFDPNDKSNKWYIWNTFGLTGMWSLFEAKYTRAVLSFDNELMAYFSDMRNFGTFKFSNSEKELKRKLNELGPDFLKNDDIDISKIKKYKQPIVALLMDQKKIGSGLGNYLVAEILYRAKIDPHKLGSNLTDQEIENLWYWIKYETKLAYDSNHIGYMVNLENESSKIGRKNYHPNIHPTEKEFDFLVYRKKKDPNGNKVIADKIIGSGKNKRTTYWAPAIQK
T1 sequence (P42371 2-273, one chain of several): as the sequence (P42371 2-273) above

SMILES | Fpg ability to bind DNA after pre-incubation with inhibitor (LlFpg/DNA complex C1) | Ki (LlFpg; high 2TX concentrations, uncompetitive, read-out: apparent Ki (Kiu)) [µM] | Ki (LlFpg; low 2TX concentrations, partially competitive, read-out: apparent Ki (Kic)) [µM] | effect on hNeil1 DNA binding activity (hNeil1) | effect on mvNei1 DNA binding activity (mvNei1)
O=c1[nH]c(=S)[nH]c2nc[nH]c12 [Compound 2TX, 2-thioxanthine, reference compound] | completely abolished | 24.9 ± 6.56 | 2.19 ± 0.56 | – | –
O=c1[nH]c(=S)[nH]c2[nH]c(=S)[nH]c12 [TX19] | – | – | – | apparent inhibitory effects | apparent inhibitory effects

From PMC7139703, “Thiopurine Derivative-Induced Fpg/Nei DNA Glycosylase Inhibition: Structural, Dynamic and Functional Insights” (International Journal of Molecular Sciences, 2020)
